Patent US20170360912A1, “CHITOSAN-BASED HYDROGEL AND APPLICATIONS THEREOF” (priority 2014, published 2017)

Experiments:
[1] = Doxycycline denaturation on mixing, spectrometry; assay type: physicochemical
Excerpt: Addition of an anti-oxidant was however required for long term stability.

[2] = Measurement of pH and osmolality (Example 2); assay type: physicochemical; details: FIG. 8 panels A-C
Description: After 24 hours of gelation at 37° C., each hydrogel was pressed and filtered in order to recover entrapped solution. The pH of the extracted liquids was measured at room temperature using a pH meter (UltraBasic pH-meter, Denver Instrument). The impact of GA concentration of gels prepared with culture medium (as detailed in Section 2.2.4) on the final osmolality of hydrogels was measured using an osmometer (Advanced® Micro Osmometer, Model 3300, Advanced Instruments Inc.).

[3] = BGP pKa,2 at 25° C.; cited from earlier work
[4] = system: endothelial-derived cells (EA.hy 926); details: SHC 0.1M; cited from earlier work

Row | Compound | drug stability on direct addition in the CH or GA solution [1] | drug stability on addition in the CH-GA solution ([1]; room temperature) | slope of osmolality versus gelling agent concentration [2] | pKa [3] | damage on endothelial-derived cells [4]
1 | C[C@H]1c2cccc(O)c2C(=O)C2=C(O)[C@]3(O)C(=O)C(C(N)=O)=C(O)[C@@H](N(C)C)[C@@H]3[C@@H](O)[C@@H]21 [doxycycline] | drug denaturation | avoid drug denaturation |  |  | 
2 | O.O.O.O.O.O=P([O-])([O-])OC(CO)CO.[Na+].[Na+] [BGP, β-Glycerol phosphate disodium salt pentahydrate, reference compound] |  |  | 1789 | 6.65 | 
3 | O=C([O-])O.[Na+] [SHC, Sodium hydrogen carbonate] |  |  | 1475 | 6.35 | no damage
